Results as given in ChEMBL document CHEMBL1201862, “PubChem BioAssay data set” (2004).
Calls of active or inactive are those of the source. No stated cut-off is given here; in the data, actives have a measured IC50 and inactives only a lower limit.

Target: Envelope glycoprotein gp160 (Human immunodeficiency virus 1, UniProt Q6QLK5)
Experiment: inhibitors of HIV fusion peptide binding, primary screen, biochemical, uHTS, fluorescence dequenching (AID 1986)

Envelope glycoprotein gp160, sequence (Q6QLK5 whole entry, the tested form may be a part): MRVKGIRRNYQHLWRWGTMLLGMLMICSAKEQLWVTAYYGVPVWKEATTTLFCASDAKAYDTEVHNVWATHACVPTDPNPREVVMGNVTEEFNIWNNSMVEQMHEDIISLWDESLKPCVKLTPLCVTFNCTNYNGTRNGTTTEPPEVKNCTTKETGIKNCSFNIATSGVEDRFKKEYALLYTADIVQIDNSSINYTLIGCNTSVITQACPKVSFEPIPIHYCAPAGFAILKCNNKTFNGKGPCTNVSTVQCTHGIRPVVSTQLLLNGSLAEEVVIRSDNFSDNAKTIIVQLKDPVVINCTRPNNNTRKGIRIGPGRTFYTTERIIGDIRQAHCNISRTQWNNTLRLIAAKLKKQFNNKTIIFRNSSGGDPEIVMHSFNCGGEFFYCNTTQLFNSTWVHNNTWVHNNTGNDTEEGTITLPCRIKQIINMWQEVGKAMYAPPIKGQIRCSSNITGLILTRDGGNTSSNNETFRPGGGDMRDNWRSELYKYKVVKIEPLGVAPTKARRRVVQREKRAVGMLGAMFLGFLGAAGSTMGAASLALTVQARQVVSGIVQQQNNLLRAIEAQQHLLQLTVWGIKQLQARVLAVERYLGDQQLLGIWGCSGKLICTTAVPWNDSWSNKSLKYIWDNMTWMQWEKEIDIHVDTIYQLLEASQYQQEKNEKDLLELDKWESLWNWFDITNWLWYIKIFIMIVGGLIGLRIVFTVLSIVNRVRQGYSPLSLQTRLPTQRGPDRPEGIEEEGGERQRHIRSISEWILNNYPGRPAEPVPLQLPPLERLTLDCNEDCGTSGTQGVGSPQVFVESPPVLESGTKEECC

In the case of `COc1ccc(S(=O)(=O)Nc2ccccc2C(=O)Nc2nc(-c3ccc(F)cc3)cs2)cc1OC`, the IC50 is reported as 14.8 µM (active).
